Three compounds from BindingDB's records for doi:10.1073/pnas.93.10.4661 (Amgen, 1996) can be followed below.

Assay [1] deals with Pro-neuropeptide Y (Homo sapiens, UniProt P01303).
The target in assay [2] is Pro-neuropeptide Y (Rattus norvegicus, UniProt P07808).

For “H-APLEPEYPGDNATPEQMAQYAAELRRYINMLTRPRY-NH2 [CAS_59763-91-6]”, on Pro-neuropeptide Y [1], the Ki (as a rule, a dissociation constant, usually derived from enzyme kinetics or from competition with a known ligand) came to 2.3 nM. On to `CC[C@H](C)[C@H](NC(=O)[C@H](Cc1ccc(O)cc1)NC(=O)[C@H](CCCNC(=N)N)NC(=O)[C@H](CCCNC(=N)N)NC(=O)[C@H](CC(C)C)NC(=O)[C@H](CCC(N)=O)NC(=O)[C@@H](NC(=O)[C@H](CCC(=O)O)NC(=O)[C@H](Cc1ccc(O)cc1)NC(=O)[C@H](CCC(N)=O)NC(=O)[C@H](C)NC(=O)[C@H](CCCNC(=N)N)NC(=O)[C@H](CCC(N)=O)NC(=O)[C@H](CCC(=O)O)NC(=O)[C@H](Cc1c[nH]cn1)NC(=O)[C@@H](NC(=O)[C@H](C)NC(=O)[C@H](Cc1ccc(O)cc1)NC(=O)[C@H](CC(=O)O)NC(=O)CNC(=O)[C@@H]1CCCN1C(=O)[C@H](Cc1ccc(O)cc1)NC(=O)[C@H](CCSC)NC(=O)[C@@H]1CCCN1C(=O)[C@H](CCC(=O)O)NC(=O)[C@H](CC(C)C)NC(=O)[C@@H]1CCCN1C(=O)[C@H](C)N)[C@@H](C)O)[C@@H](C)O)C(=O)N[C@@H](CC(N)=O)C(=O)N[C@H](C(=O)N[C@@H](CC(C)C)C(=O)N[C@H](C(=O)N[C@@H](CCCNC(=N)N)C(=O)N1CCC[C@H]1C(=O)N[C@@H](CCCNC(=N)N)C(=O)N[C@@H](Cc1ccc(O)cc1)C(N)=O)[C@@H](C)O)[C@@H](C)O` [NSC_41735], for which the values for the Ki at Pro-neuropeptide Y [1] and on Pro-neuropeptide Y [2] were 139 nM and 0.4 nM, respectively.

As for `CC[C@H](C)[C@H](NC(=O)[C@H](Cc1ccc(O)cc1)NC(=O)[C@H](CCCNC(=N)N)NC(=O)[C@H](CCCNC(=N)N)NC(=O)[C@H](CC(C)C)NC(=O)[C@H](CC(=O)O)NC(=O)[C@H](C)NC(=O)[C@H](C)NC(=O)[C@H](Cc1ccc(O)cc1)NC(=O)[C@H](CCC(N)=O)NC(=O)[C@H](C)NC(=O)[C@H](CCSC)NC(=O)[C@H](CCC(N)=O)NC(=O)[C@H](CCC(=O)O)NC(=O)[C@@H]1CCCN1C(=O)[C@@H](NC(=O)[C@H](C)NC(=O)[C@H](CC(N)=O)NC(=O)[C@H](CC(=O)O)NC(=O)CNC(=O)[C@@H]1CCCN1C(=O)[C@H](Cc1ccc(O)cc1)NC(=O)[C@@H](NC(=O)[C@@H]1CCCN1C(=O)[C@H](CCC(=O)O)NC(=O)[C@H](CC(C)C)NC(=O)[C@@H]1CCCN1C(=O)[C@H](C)N)C(C)C)[C@@H](C)O)C(=O)N[C@@H](CC(N)=O)C(=O)N[C@@H](CCSC)C(=O)N[C@@H](CC(C)C)C(=O)N[C@H](C(=O)N[C@@H](CCCNC(=N)N)C(=O)N1CCC[C@H]1C(=O)N[C@@H](CCCNC(=N)N)C(=O)N[C@@H](Cc1ccc(O)cc1)C(N)=O)[C@@H](C)O` [CAS_59763-91-6], the inhibition constant Ki was determined as 1.9 nM at Pro-neuropeptide Y [1] and 0.3 nM at Pro-neuropeptide Y [2].
